Values after ≈ are worked out from the molar mass of the structure shown.
How the values were obtained:
[1] = tested on: mouse sarcoma 180; assay: In vitro anti-proliferative activity against mouse tumor cell lines, Test Method 2 (sarcoma 180); assay type: cell-based; details: Sarcoma 180, 48 hours, 37° C.
Protocol: In vitro anti-proliferative activity against mouse tumor cell lines
1. Mouse lymphoma cell line P388 or mouse sarcoma 180 is suspended in RPMI1640 medium supplemented with 10% fetal bovine serum and 2 μM 2-hydroxyethyl disulfide to a concentration of 10^5 cells/ml. Test compounds are serially diluted with the same medium.
2. 0.5 ml of the cell suspension thus obtained is admixed with 0.5 ml of the medium or the test compound solution, and the mixture is incubated in a 5% CO2 -incubator at 37° C. for 48 hours. The incubation is carried out in glass culture tubes.
3. At the end of incubation, the number of the cells in each tube is counted with a Coulter counter (Model ZB, Coulter Electronics), and the growth inhibition percent (%) is calculated from the same equation as in Test Method 1.
4. The IC50 value is obtained as in Test Method I.

[2] = tested on: PANC-1; assay: In vitro anti-proliferative activity against human tumor cell lines (PANC-1); assay type: cell-based; details: PANC-1, Pancreatic carcinoma, 72 hours
Protocol: (§1) In vitro anti-proliferative activity against human tumor cell lines
(§2) Test Compound: 5-ethynyl-1-β-D-ribofuranosylimidazole-4-carboxamide
(§3) A variety of human tumor cell lines are suspended in media specified according to the species of the cell lines to predetermined cell concentrations as shown in the following Table.
(§4) 1 ml of the resulting cell suspension is seeded into each well of a 24 multi-well plate and incubated in a 5% CO2 -incubator at 37° C. for 24 hours. The culture medium is then replaced by a medium containing no test compound or by an appropriate amount of a serially diluted test compound solution. […] The number of the cells in each well is counted with a Coulter counter (Model ZB, Coulter Electronics), and the growth inhibition percent (%) of the cells at each concentration of a test compound is determined by the following equation: [formula] Tx: Number of the cells in a well containing a test compound as counted upon completion of the incubation (cells/ml) […] Cx: Number of the cells in a well containing no test compound as counted upon completion of the incubation (cells/ml)
(§5) Co: Number of the cells in a well containing no test compound as counted at the initiation of the incubation (cells/ml) […]

[3] = tested on: KB; assay: In vitro anti-proliferative activity against human tumor cell lines (KB); assay type: cell-based; details: Nasopharyngeal carcinoma, 72 hours
Protocol: as §1, §2, §3, §4, §5

[4] = tested on: KU-2; assay: In vitro anti-proliferative activity against human tumor cell lines (KU-2); assay type: cell-based; details: KU-2, Renal cell carcinoma, 72 hours
Protocol: as §1, §2, §3, §4, §5

[5] = tested on: U-2OS; assay: In vitro anti-proliferative activity against human tumor cell lines (U-2OS); assay type: cell-based; details: U2OS, Osteogenic sarcoma, 72 hours
Protocol: as §1, §2, §3, §4, §5

[6] = tested on: QG-56; assay: In vitro anti-proliferative activity against human tumor cell lines (QG-56); assay type: cell-based; details: QG-56, Lung squamous carcinoma, 72 hours
Protocol: as §1, §2, §3, §4, §5

[7] = tested on: human gastric cancer cells, 4-1ST; assay: In vivo antitumor activity against human gastric cancer cells, 4-1ST, subcutaneously implanted into nude mice; details: for Body weight / T/C (%) / Tumor growth rate (Rt): 125 mg/kg i.v. days 10, 14, 18
Protocol: In vivo antitumor activity against human gastric cancer cells, 4-1ST, subcutaneously implanted into nude mice
Human gastric cancer cells, 4-1ST(ca. 8 mm^3), are subcutaneously implanted at the ventral site of nude mice (BALB/c-nu/nu, female, 5 weeks old). Ten days after the implantation when the tumor volume reaches 150 to 300 mm^3, the mice are divided into groups (6 mice/group), and the treatment with a test drug was started.
5-Ethynyl-1-β-D-ribofuranosylimidazole-4-carboxamide is dissolved in distilled water and intravenously administered to the mice at a dose of 125 mg/kg on days 10, 14 and 18 after the implantation of the tumor, the volume of the drug solution being 0.1 ml per 10 g of the body weight of the mouse.
Each mouse is weighed, and width (a mm) and length (b mm) of the tumor thereof are measured twice a week to determine the tumor volume (A mm^3) from the following equation: […]
Subsequently, the tumor growth rate (R) is determined as follows on the basis of the tumor volume (A10) on day 10 after the implantation of the tumor cells:
R: Tumor growth rate after a predetermined period from the tumor implantation
A: Tumor volume after a predetermined period from the tumor implantation
A10 : Tumor volume as determined 10 days after the tumor implantation
T/C (%) is further obtained from the following equation by comparison between the tumor growth rate in the test group (Rt) and that in the control group (Rc):
Test group: 125 mg/kg of the drug was intravenously administered on days
10, 14 and 18 after the tumor implantation.

[8] = day 22, * = P < 0.05 vs control
[9] = day 25, * = P < 0.05 vs control

Compound: C#Cc1c(C(N)=O)ncn1[C@@H]1O[C@H](CO)[C@@H](O)[C@H]1O [5-ethynyl-1-β-D-ribofuranosylimidazole-4-carboxamide]
- IC50 [1]: 0.1 µg/mL (≈ 0.374 µM)
- IC50 [2]: 0.9 µg/mL (≈ 3.37 µM)
- IC50 [3]: 0.33 µg/mL (≈ 1.23 µM)
- IC50 [4]: < 0.1 µg/mL
- IC50 [5]: 0.62 µg/mL (≈ 2.32 µM)
- IC50 [6]: 0.37 µg/mL (≈ 1.38 µM)
- antitumor activity ([7]; 125 mg/kg every 4 days 3 times in total, i.v.): remarkable antitumor activity
- Body weight ([7]; day 10 after implantation): 20 g
- T/C (%) ([7]; day 10 after implantation): 100%
- Tumor growth rate (Rt) ([7]; day 10 after implantation): 1.0
- Body weight ([7]; day 14): 21 g
- T/C (%) ([7]; day 14): 67%
- Tumor growth rate (Rt) ([7]; day 14): 3.0
- Body weight ([7]; day 17): 21 g
- T/C (%) ([7]; day 17): 67%
- Tumor growth rate (Rt) ([7]; day 17): 5.1
- Body weight ([7]; day 22): 22 g
- T/C (%) [7, 8]: 60%
- Tumor growth rate (Rt) [7, 8]: 8.0
- Body weight ([7]; day 25): 23 g
- T/C (%) [7, 9]: 63%
- Tumor growth rate (Rt) [7, 9]: 12
- Body weight ([7]; day 28): 23 g
- T/C (%) ([7]; day 28): 67%
- Tumor growth rate (Rt) ([7]; day 28): 16
- Body weight ([7]; day 31): 24 g
- T/C (%) ([7]; day 31): 71%
- Tumor growth rate (Rt) ([7]; day 31): 20
- Body weight ([7]; day 35): 23 g
- T/C (%) ([7]; day 35): 77%
- Tumor growth rate (Rt) ([7]; day 35): 30
